Test results published in publication PMC9203275, “Lysosome lipid signalling from the periphery to neurons regulates longevity” (Nature Cell Biology, 2022).

Assays:
LBP-3 = target: T1, LBP-3 (Caenorhabditis elegans, UniProt Q20222); experiment: competitive fluorescence displacement of […],8-ANS; type: binding; conditions: one-site Fit Ki; competition with 1,8-ANS probe
T1 sequence (Q20222 16-165): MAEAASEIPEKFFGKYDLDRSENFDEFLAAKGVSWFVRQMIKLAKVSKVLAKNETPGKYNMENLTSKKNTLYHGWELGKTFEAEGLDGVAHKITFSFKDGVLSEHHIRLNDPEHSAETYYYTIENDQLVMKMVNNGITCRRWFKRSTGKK

LBP-2 = target: T2, LBP-2 (Caenorhabditis elegans, UniProt Q20224); experiment: mass spectrometry of fatty acids bound after incubation with C. elegans lipid extract; type: binding; conditions: competition within C. elegans lipid extract
T2 sequence (Q20224 19-161): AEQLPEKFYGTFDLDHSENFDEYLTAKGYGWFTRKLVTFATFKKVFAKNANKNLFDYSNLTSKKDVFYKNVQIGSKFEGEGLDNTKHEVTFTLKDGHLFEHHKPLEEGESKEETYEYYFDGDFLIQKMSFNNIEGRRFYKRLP

Row | Kd (LBP-3) | % occupancy among bound PUFAs (LBP-2) | SMILES
1 | 11 µM | 1% | CCCCC/C=C\C/C=C\C/C=C\CCCCCCC(=O)O [DGLA, dihomo-γ-linolenic acid]
2 | 4.76 µM | 6% | CC/C=C\C/C=C\C/C=C\C/C=C\C/C=C\CCCC(=O)O [EPA, eicosapentaenoic acid]
